# Measurements: US9476099B2 (TRUSTEES OF DARTMOUTH COLLEGE, priority 2012, dated 2016)
# Where “and” joins values, the source holds several entries; their conditions need not be identical. Equal entries are not always repeated.
# Tested on: NT2/D1-R1 control and DNMT3B knockdown cells
# Assay: Genome-wide expression analysis with PAM clusters, control and DNMT3B knockdown cells (Tables 8-14)
# Conditions: sh-Ctrl + aza; 10 nM decitabine, 3 days
compound,measurement,value
Nc1ncn([C@H]2C[C@H](O)[C@@H](CO)O2)c(=O)n1 [aza],ADAMTSL2 NM_014694 expression Mean,295.667
same,ADM NM_001124 expression Mean,937.101
same,AFMID NM_0010109 expression Mean,303.389
same,AHNAK NM_001620 expression Mean,522.882
same,ANAPC13 NM_015391 expression Mean,549.873
same,ANXA1 NM_000700 expression Mean,1242.05
same,ANXA2 NM_0010028 expression Mean,3575.79
same,AW972815 expression Mean,1125.31
same,BAG3 NM_004281 expression Mean,1275
same,BCL11A NM_022893 expression Mean,399.892
same,BIRC5 NM_001168 expression Mean,873.507
same,BTG2 NM_006763 expression Mean,474.998
same,C9orf6 NM_017832 expression Mean,333.034
same,C10orf2 NM_021830 expression Mean,515.45
same,C10orf58 NM_032333 expression Mean,983.117
same,C16orf93 NM_0010149 expression Mean,392.581
same,CA2 NM_000067 expression Mean,678.212
same,CATSPER2 NM_172097 expression Mean,1806.2
same,CAV1 NM_001753 expression Mean,740.14
same,CCND1 NM_053056 expression Mean,4666.94
same,CDKN1A NM_000389 expression Mean,1938.97
same,CDX1 NM_001804 expression Mean,802.577
same,CEACAM1 NM_0010249 expression Mean,229.793
same,CIRH1A NM_032830 expression Mean,1971.98
same,CLCF1 NM_013246 expression Mean,340.544
same,CLDN10 NM_006984 expression Mean,407.272
same,CNN3 NM_001839 expression Mean,1086.56
same,COL7A1 NM_000094 expression Mean,1054.31
same,COL17A1 NM_000494 expression Mean,521.166
same,CRABP2 NM_001878 expression Mean,2128.79
same,CRIPT NM_014171 expression Mean,613.112
same,CTNNB1 NM_0010982 expression Mean,342.941
same,CUEDC1 NM_017949 expression Mean,525.909
same,CXCL14 NM_004887 expression Mean,366.998
same,CXXC1 NM_014593 expression Mean,1743.77
same,CXorf40A NM_178124 expression Mean,324.823
same,CYR61 NM_001554 expression Mean,634.193
same,DDX51 NM_175066 expression Mean,1671.08
same,DIMT1L NM_014473 expression Mean,893.36
same,DUSP5 NM_004419 expression Mean,1627.42
same,EBI3 NM_005755 expression Mean,650.267
same,EIF2C2 NM_012154 expression Mean,794.459
same,ELF3 NM_004433 expression Mean,306.008
same,ELF4 NM_001421 expression Mean,721.011
same,EMILIN2 NM_032048 expression Mean,650.943
same,EOMES NM_005442 expression Mean,387.137
same,FAM53C NM_016605 expression Mean,2860.96
same,FAM123B NM_152424 expression Mean,1182.82
same,FLJ40504 NM_173624 expression Mean,3003.39
same,FOXO3 NM_201559 expression Mean,639.391
same,GAD1 NM_000817 expression Mean,287.008
same,GAD1 NM_013445 expression Mean,372.485
same,GALNAC4S-6 NM_015892 expression Mean,704.001
same,GEMIN4 NM_015721 expression Mean,1411.28
same,GLIPR2 NM_022343 expression Mean,792.16
same,GNL3L NM_019067 expression Mean,392.011
same,GNL3 NM_206826 expression Mean,1332.63
same,GPATCH4 NM_182679 expression Mean,1117.44
same,GPER NM_0010399 expression Mean,305.922
same,GPR56 NM_201524 expression Mean,378.312
same,GPR56 NM_201525 expression Mean,392.608
same,GPR177 NM_0010022 expression Mean,251.287 and 391.197
same,GPR177 NM_024911 expression Mean,515.533
same,GTF3C6 NM_138408 expression Mean,503.701
same,H2AFY NM_004893 expression Mean,2387.37
same,HARS NM_002109 expression Mean,1887.22
same,HCLS1 NM_005335 expression Mean,319.822
same,HES2 NM_019089 expression Mean,310.888
same,HSPA1A NM_005346 expression Mean,699.362
same,HSPA8 NM_006597 expression Mean,3448.31
same,HSPA8 NM_153201 expression Mean,5257.42
same,HSPH1 NM_006644 expression Mean,565.151
same,ID3 NM_002167 expression Mean,3392.56
same,IER3 NM_003897 expression Mean,835.676
same,IL2RB NM_000878 expression Mean,274.617
same,ITPRIP NM_033397 expression Mean,346.452
same,JTV1 NM_006303 expression Mean,1876.43
same,KAT2A NM_021078 expression Mean,1965.54
same,KIAA0101 NM_014736 expression Mean,468.29
same,KRT8 NM_002273 expression Mean,3394.59
same,LEFTY2 NM_003240 expression Mean,1161.57
